Source: patent US7541367B2, “3-benzoimidazolyl-pyrazolopyridines useful in treating kinase disorders” (Janssen Pharmaceutica, N.V., priority 2005, dated 2009)

Experiments:
CDK1 = target: T1, CDK1 (Homo sapiens, UniProt P06493); assay: CDK-1 kinase screening assay (33P-ATP FlashPlate); assay type: biochemical; conditions: human CDK1 with cyclin B; 10 μM ATP; 1 hr at 30° C
T1 construct: purchased New England Biolabs, Beverly, Mass; 6020; host or cells: insect cells

VEGF-R2 = target: T2, VEGF-R2 (Rattus norvegicus, UniProt O08775); assay: VEGF-R2 kinase screening assay (33P-ATP FlashPlate); assay type: biochemical; conditions: rat VEGF-R2 kinase domain; 10 μM ATP; 1 hr at 30° C;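 note: Read-out is ³³P incorporation from ³³P-γ-ATP into biotinylated peptide substrate captured on streptavidin FlashPlate, counted by scintillation, 1% DMSO final, inhibition scaled between per-plate maximum and minimum signals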
T2 construct: polyhistidine (N)

HER2 = target: T3, HER2 (Homo sapiens, UniProt P04626); assay: HER2 kinase screening assay (33P-ATP FlashPlate); assay type: biochemical; conditions: GST-HIS6 HER-2 aa 679 to 1255; 10 μM ATP; 1 hr at 30° C;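 note: Biotin-poly(GT) 4:1 peptide captured on streptavidin FlashPlate, 33P transfer from γ-ATP read by scintillation counting, lower incorporation means inhibition, 1% DMSO final, 100 µL reaction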
T3 construct: GST (Glutathione-S-Transferase) (N); HIS6 (N); thrombin cleavage site (N); purchased Proqinase, Freiburg, Germany

Aurora-A = target: T4, Aurora-A (Mus musculus, UniProt P97477); assay: Aurora-A kinase screening assay (33P-ATP FlashPlate); assay type: biochemical; conditions: 10 μM ATP, 1 hr at 30° C;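 note: His-tagged mouse Aurora-A phosphorylating a biotinylated peptide captured on streptavidin plates, read as 33P uptake by scintillation counting, 1% DMSO, inhibition scaled between per-plate maximum and minimum signals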
T4 construct: polyhistidine (N)
T4 sequence (P97477 1-395): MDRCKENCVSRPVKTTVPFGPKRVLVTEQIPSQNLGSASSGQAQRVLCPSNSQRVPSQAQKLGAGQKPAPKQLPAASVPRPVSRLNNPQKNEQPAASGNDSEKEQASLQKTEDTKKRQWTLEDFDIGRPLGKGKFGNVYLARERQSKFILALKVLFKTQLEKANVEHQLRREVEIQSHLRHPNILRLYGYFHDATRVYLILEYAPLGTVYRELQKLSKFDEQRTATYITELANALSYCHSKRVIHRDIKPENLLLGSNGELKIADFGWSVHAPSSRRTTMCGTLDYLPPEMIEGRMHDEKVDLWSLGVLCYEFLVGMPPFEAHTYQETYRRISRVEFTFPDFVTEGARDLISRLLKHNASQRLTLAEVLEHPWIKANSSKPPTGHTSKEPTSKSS

RET = target: T5, RET (Homo sapiens, UniProt P07949); assay: RET kinase screening assay (33P-ATP FlashPlate); assay type: biochemical; conditions: human RET kinase domain; 10 μM ATP; 1 hr at 30° C;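 note: biotinylated peptide substrate captured on streptavidin FlashPlate, 33P phosphate transfer read by scintillation counting, 1% DMSO, lower incorporation means inhibition, percent relative to per-plate maximum and minimum signals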
T5 construct: polyhistidine (N)
T5 sequence (P07949 658-1114 limits assumed): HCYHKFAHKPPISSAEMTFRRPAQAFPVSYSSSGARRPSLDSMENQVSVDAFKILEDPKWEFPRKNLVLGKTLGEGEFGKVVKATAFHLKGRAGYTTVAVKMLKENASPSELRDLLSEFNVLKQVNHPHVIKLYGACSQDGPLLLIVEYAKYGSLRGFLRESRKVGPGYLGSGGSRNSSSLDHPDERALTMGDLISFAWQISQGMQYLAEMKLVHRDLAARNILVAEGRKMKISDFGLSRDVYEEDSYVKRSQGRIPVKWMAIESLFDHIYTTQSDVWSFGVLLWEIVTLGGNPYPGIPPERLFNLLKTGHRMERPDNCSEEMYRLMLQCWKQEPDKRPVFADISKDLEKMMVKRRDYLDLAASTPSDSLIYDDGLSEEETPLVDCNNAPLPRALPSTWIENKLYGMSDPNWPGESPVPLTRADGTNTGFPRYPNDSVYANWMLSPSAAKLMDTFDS

[1] = system: HeLa cervical adenocarcinoma; assay: Cell Proliferation Inhibition Assay (14C-thymidine incorporation), HeLa; assay type: cell-based; conditions: Homo sapiens, HeLa, HeLa cells;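 note: test compound in DMSO added to cells seeded in scintillating 96-well plates, DMSO-only wells as control, uptake of methyl 14C-thymidine into new DNA counted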
A375 malignant melanoma = assay: Cell Proliferation Inhibition Assay (14C-thymidine incorporation), A375; assay type: cell-based; conditions: Homo sapiens, A-375, A375 cells;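 note: proliferation measured by radiolabelled thymidine uptake into new DNA, counted in scintillating 96-well plates, compound-treated wells compared with DMSO-only control wells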
HCT-116 colon carcinoma = assay: Cell Proliferation Inhibition Assay (14C-thymidine incorporation), HCT-116; assay type: cell-based; conditions: Homo sapiens, HCT-116, HCT-116 cells;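 note: proliferation measured as methyl 14C-thymidine uptake into new DNA, counted in 96-well scintillating microplates, compared with DMSO-only control wells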
c-Src kinase = target: T6, c-Src kinase (Homo sapiens, UniProt P12931); assay: c-Src Kinase Assay; assay type: biochemical; conditions: 5 μM ATP
T6 construct: purchased Upstate Biotechnology, Lake Placid, N.Y
Procedure: A mixture of a 10× kinase buffer (80 mM MOPS at pH 7.0, 2 mM EDTA and 100 mM Magnesium Chloride), ATP (5 μM final from a 10 mM stock), a Cdc2 peptide […] (100 μM final from a 2.5 mM stock), γ-^33P ATP (10 μCi/μL stock) and water (for a total of 20 μL/well) was added to each well of a Streptavidin Flashplate.
Test compound in 100% DMSO (0.5 μL) was added to the appropriate wells. Diluted c-Src kinase (human) (Accession Number SWISS-PROT P12931) (Upstate Biotechnology, Lake Placid, N.Y.) (diluted in a buffer consisting of 20 mM MOPS at pH 7.0, 1 mM EDTA, β-mercaptoethanol (0.1%), Brij-35 (0.01%), glycerol (5%), and 1 mg/mL bovine serum albumin) (2.5 μL) was added to the wells to initiate the reactions. The reaction plates were incubated at 30° C. for 40 min. The reaction was terminated by the addition of a 3% phosphoric acid solution (5 μL). The reaction product (10 μL) was spotted onto a P30 filtermat and washed for 5 minutes in phosphoric acid (75 mM). The wash sequence was repeated two more times, followed with one final wash in methanol. The plates were then dried, sealed and read on the TopCount scintillation counter after adding 30 μL scintillation fluid.
A maximum and minimum signal for the assay was determined on each plate. The percent inhibition of a test compound was calculated according to the formula: […]
For a series of test concentrations, the IC50 was derived by graphing percent inhibition against the log of the concentrations tested for a given compound with results shown in Table 2
For compounds with multiple values, each value represents a separate assay result.

T3 sequence (P04626 679-1255): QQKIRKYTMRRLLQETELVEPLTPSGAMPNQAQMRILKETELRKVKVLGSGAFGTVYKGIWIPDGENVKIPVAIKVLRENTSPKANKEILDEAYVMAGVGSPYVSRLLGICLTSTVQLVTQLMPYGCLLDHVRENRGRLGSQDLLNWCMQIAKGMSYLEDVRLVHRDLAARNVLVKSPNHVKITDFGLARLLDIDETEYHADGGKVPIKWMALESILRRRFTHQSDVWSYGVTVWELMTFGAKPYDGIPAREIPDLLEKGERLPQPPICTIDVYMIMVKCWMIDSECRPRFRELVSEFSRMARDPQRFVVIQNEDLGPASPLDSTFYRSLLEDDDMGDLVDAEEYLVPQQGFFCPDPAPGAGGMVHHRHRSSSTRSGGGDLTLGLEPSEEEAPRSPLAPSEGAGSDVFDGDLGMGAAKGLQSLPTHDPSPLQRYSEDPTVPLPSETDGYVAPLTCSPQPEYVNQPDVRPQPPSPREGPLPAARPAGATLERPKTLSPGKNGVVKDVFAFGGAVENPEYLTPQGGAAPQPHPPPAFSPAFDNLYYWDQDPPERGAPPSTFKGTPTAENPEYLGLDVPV
T2 sequence (O08775 786-1343): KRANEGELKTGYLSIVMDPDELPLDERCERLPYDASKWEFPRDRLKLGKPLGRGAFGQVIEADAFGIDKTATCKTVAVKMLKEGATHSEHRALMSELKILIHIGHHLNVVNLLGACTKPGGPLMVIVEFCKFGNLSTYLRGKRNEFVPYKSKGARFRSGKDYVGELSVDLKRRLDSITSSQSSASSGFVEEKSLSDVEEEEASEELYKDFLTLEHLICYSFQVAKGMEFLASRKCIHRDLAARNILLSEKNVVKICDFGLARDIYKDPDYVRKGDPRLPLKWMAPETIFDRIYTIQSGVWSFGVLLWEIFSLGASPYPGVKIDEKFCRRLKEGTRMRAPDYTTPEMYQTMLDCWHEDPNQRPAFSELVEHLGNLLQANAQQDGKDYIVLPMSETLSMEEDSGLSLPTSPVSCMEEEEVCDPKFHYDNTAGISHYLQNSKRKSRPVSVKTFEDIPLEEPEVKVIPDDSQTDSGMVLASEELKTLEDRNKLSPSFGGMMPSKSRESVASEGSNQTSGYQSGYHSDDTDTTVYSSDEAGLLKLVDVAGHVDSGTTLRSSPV
T1 sequence (P06493 whole entry): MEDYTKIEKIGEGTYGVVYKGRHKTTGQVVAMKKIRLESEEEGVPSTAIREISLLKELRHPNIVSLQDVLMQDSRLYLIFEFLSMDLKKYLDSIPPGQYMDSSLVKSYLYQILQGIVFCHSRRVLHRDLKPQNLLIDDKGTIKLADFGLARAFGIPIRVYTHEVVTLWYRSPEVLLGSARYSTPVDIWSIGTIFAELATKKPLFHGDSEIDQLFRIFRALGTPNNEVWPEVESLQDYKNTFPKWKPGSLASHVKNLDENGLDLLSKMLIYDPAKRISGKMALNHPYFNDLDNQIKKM
T1 sequence (P14635 whole entry partner): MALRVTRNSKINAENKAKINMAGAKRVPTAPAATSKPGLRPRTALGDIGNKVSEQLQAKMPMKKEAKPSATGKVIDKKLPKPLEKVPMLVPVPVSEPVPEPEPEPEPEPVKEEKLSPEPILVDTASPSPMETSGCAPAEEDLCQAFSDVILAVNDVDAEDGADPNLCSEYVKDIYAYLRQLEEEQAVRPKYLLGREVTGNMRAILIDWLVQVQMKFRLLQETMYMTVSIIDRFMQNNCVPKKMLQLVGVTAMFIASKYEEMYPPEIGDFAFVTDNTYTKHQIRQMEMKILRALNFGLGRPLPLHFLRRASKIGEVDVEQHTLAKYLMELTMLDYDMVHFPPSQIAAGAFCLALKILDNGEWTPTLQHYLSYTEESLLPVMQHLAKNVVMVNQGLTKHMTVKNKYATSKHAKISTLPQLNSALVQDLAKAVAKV
T6 sequence (P12931 whole entry): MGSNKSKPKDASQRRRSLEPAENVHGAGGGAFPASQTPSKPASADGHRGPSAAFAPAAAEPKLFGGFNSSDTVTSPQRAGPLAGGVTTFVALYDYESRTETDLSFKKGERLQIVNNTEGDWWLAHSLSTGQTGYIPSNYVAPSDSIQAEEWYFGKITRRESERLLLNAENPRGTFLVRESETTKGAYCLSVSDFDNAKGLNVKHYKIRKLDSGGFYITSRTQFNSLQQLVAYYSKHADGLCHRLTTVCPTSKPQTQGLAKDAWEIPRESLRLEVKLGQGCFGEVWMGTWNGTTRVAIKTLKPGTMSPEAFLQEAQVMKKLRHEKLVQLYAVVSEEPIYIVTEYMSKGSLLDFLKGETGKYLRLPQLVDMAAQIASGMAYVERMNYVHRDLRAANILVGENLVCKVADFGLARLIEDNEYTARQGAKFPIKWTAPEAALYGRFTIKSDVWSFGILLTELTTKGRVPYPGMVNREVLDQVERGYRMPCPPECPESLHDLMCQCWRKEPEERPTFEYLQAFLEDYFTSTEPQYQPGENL

Work on CCCCNCc1cncc(-c2cnc3[nH]nc(-c4nc5c(COC)cccc5[nH]4)c3c2)c1 [Cpd 79, butyl-{5-[3-(4-methoxymethyl-1H-benzoimidazol-2-yl)-1H-pyrazolo[3,4-b]pyridin-5-yl]-pyridin-3-ylmethyl}-amine] yielded an IC50 (CDK1) of 0.00681 µM, an IC50 (VEGF-R2) of roughly 1 µM and an IC50 (HER2) greater than 10 µM. For the same compound, the IC50 (Aurora-A) was 2.45 µM, the IC50 (RET) was greater than 10 µM and the IC50 [1] was 0.417 µM. The IC50 (A375 malignant melanoma) was 0.343 µM and the IC50 (HCT-116 colon carcinoma) was 0.218 µM.

Compound CN(C)Cc1cncc(-c2cnc3[nH]nc(-c4nc5cc(N6CCN(C)CC6)ccc5[nH]4)c3c2)c1 [Cpd 88, dimethyl-(5-{3-[5-(4-methyl-piperazin-1-yl)-1H-benzoimidazol-2-yl]-1H-pyrazolo[3,4-b]pyridin-5-yl}-pyridin-3-ylmethyl)-amine] has an IC50 (CDK1) of 0.00614 µM, an IC50 (VEGF-R2) of 0.12 µM and an IC50 (HER2) of 1.92 µM. The IC50 (Aurora-A) was 0.281 µM, the IC50 (RET) was 0.104 µM and the IC50 [1] was 0.861 µM. The IC50 (A375 malignant melanoma) was 0.885 µM and the IC50 (HCT-116 colon carcinoma) was 0.431 µM.

For FC(F)(F)Oc1ccc2[nH]c(-c3n[nH]c4ncc(-c5cccnc5)cc34)nc2c1 [Cpd 94, 5-pyridin-3-yl-3-(5-trifluoromethoxy-1H-benzoimidazol-2-yl)-1H-pyrazolo[3,4-b]pyridine], the IC50 (CDK1) was 0.006 µM, the IC50 (HER2) was greater than 100 µM and the IC50 (Aurora-A) was greater than 10 µM. It also gave an IC50 (RET) greater than 100 µM, an IC50 (c-Src kinase) of 0.756 µM and an IC50 [1] of 0.799 µM. The IC50 (A375 malignant melanoma) was 0.645 µM and the IC50 (HCT-116 colon carcinoma) was 0.519 µM.

For OCCOc1ccc2[nH]c(-c3n[nH]c4ncc(-c5cccnc5)cc34)nc2c1 [Cpd 95, 2-[2-(5-pyridin-3-yl-1H-pyrazolo[3,4-b]pyridine-3-yl)-1H-benzoimidazol-5-yloxyl]-ethanol], the IC50 (CDK1) was 0.0034 µM, the IC50 (HER2) was greater than 100 µM and the IC50 (Aurora-A) was 0.229 µM. It also gave an IC50 (RET) greater than 1 µM, an IC50 (c-Src kinase) of 0.074 µM and an IC50 [1] of 1.93 µM. For the same compound, the IC50 (A375 malignant melanoma) was 2.65 µM and the IC50 (HCT-116 colon carcinoma) was 1.41 µM.

With FC1(F)Oc2cc3nc(-c4n[nH]c5ncc(-c6cccnc6)cc45)[nH]c3cc2O1 [Cpd 98, 2,2-difluoro-6-(5-pyridin-3-yl-1H-pyrazolo[3,4-b]pyridin-3-yl)-5H-[1,3]dioxolo[4′,5′:4,5]benzo[1,2-d]imidazole] the IC50 (CDK1) was 0.0066 µM, the IC50 (VEGF-R2) was greater than 0.1 µM and the IC50 (HER2) was greater than 100 µM. The IC50 (Aurora-A) was greater than 10 µM, the IC50 (RET) was greater than 100 µM and the IC50 [1] was 1.61 µM. For the same compound, the IC50 (A375 malignant melanoma) was 1.08 µM and the IC50 (HCT-116 colon carcinoma) was 0.943 µM.

With c1cncc(-c2cnc3[nH]nc(-c4nc5cc6c(cc5[nH]4)OCO6)c3c2)c1 [Cpd 99, 6-(5-pyridin-3-yl-1H-pyrazolo[3,4-b]pyridin-3-yl)-5H-[1,3]dioxolo[4′,5′:4,5]benzo[1,2-d]imidazole] the IC50 (CDK1) was 0.0033 µM, the IC50 (VEGF-R2) was roughly 1 µM and the IC50 (HER2) was greater than 100 µM. The IC50 (Aurora-A) was roughly 10 µM, the IC50 (RET) was greater than 100 µM and the IC50 [1] was 0.471 µM. The IC50 (A375 malignant melanoma) was 0.489 µM and the IC50 (HCT-116 colon carcinoma) was 0.271 µM.

CNCc1cncc(-c2cnc3[nH]nc(-c4nc5ccc(C#N)cc5[nH]4)c3c2)c1 [Cpd 105, 2-[5-(5-methylaminomethyl-pyridin-3-yl)-1H-pyrazolo[3,4-b]pyridin-3-yl]-3H-benzoimidazole-5-carbonitrile] showed an IC50 (CDK1) of 0.0017 µM, an IC50 (VEGF-R2) greater than 0.01 µM and an IC50 (HER2) greater than 10 µM. For the same compound, the IC50 (Aurora-A) was greater than 1 µM, the IC50 (RET) was greater than 0.01 µM and the IC50 [1] was 0.12 µM. The IC50 (A375 malignant melanoma) was 0.526 µM and the IC50 (HCT-116 colon carcinoma) was 0.685 µM.
